Measured values: BindingDB's records for doi:10.7270/Q2Q52N1X (Vanderbilt Screening Center for GPCRs, Ion Channels and …, 2009)

Target: T1, Solute carrier family 12 member 5 (Homo sapiens, UniProt Q9H2X9)
T1 sequence (Q9H2X9 whole entry): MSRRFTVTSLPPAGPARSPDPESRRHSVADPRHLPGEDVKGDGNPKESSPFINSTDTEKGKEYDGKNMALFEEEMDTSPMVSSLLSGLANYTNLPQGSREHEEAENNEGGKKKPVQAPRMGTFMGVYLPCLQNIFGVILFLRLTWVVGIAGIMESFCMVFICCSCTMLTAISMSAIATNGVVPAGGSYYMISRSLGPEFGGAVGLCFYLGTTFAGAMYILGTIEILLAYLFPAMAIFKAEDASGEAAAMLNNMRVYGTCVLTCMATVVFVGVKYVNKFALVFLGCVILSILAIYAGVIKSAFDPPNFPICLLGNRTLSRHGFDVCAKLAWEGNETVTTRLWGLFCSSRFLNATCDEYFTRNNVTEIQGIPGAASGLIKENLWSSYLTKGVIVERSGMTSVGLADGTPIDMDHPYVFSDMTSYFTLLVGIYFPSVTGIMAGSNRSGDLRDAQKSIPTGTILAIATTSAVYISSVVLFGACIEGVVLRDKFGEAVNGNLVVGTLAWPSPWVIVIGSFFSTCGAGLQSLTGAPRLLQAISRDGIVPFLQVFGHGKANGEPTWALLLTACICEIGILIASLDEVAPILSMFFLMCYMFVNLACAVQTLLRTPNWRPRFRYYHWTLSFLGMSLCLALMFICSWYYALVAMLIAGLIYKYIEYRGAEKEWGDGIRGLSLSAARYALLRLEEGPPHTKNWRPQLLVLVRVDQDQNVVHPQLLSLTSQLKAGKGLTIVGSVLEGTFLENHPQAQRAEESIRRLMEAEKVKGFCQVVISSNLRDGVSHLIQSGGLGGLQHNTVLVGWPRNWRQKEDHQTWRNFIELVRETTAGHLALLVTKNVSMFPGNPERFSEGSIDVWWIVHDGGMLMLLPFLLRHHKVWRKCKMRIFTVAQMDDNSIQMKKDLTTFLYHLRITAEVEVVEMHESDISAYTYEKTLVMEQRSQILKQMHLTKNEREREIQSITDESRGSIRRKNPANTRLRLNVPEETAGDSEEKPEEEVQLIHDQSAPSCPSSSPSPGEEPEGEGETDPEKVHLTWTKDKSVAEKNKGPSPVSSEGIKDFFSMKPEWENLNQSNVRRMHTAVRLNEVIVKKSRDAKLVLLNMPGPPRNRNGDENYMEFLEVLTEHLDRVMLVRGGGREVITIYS
Assay: KCC2 modulator potency by thallium flux, dose response, cell-based, HEK293 KCC2, FluoZin-2 fluorescence (AID 1736)
Settings: not given

Row | EC50 | SMILES
1 | 0.678 µM | O=C(CNC(=O)/C(=C/c1ccccc1)NC(=O)c1ccc(Br)cc1)OCc1ccccc1 [(phenylmethyl) 2-[[(Z)-2-[(4-bromophenyl)carbonylamino]-3-phenyl-prop-2-enoyl]amino]ethanoate]
2 | 0.00108 µM | CCCCNc1cc(C(=O)O)cc(S(N)(=O)=O)c1Oc1ccccc1 [Fordiuran]
3 | 101 µM | COc1ccccc1-n1cnc2cc(NS(=O)(=O)c3ccccc3)ccc21 [MLS000032522]
4 | 4.09 µM | Cc1ccc2c(c1)nnn2C1CCN(S(=O)(=O)c2cccc(S(=O)(=O)N(C)C)c2)CC1 [MLS000033642]
5 | 9.45 µM | O=C(CSc1ncccc1-c1nc2ccccc2[nH]1)N1CCN(c2ccccc2F)CC1 [MLS000033700]
6 | 0.53 µM | O=C(OC1CCc2ccccc2C1=O)c1ccccc1O (stereo unspecified) [MLS000051417]
7 | 12.5 µM | N#Cc1ccccc1NC(=O)CSc1nccn1CCc1ccccc1 [MLS000051858]
8 | 1.13 µM | Cc1nonc1NC(=O)CSc1ccc(-c2ccccc2)nn1 [MLS000074514]
9 | 9.9 µM | O=C(NCc1cccs1)c1nc2c(nnn2Cc2ccc(F)cc2)c(=O)[nH]1 [MLS000074753]
10 | 4040 µM | O=S(=O)(NCCc1ccccc1F)c1cccc(S(=O)(=O)N2CCOCC2)c1 [MLS000076090]
11 | 7.34 µM | O=C(NCCc1csc(-c2ccccc2)n1)c1cccs1 [MLS000102716]
12 | 3.24 µM | O=C(Nc1ccc2oc(-c3ccccc3)nc2c1)c1ccncc1 [MLS000109492]
13 | 2.43 µM | CS(=O)(=O)N(CC(=O)N1CCN(c2ccccc2)CC1)c1cccc(Br)c1 [MLS000110474]
14 | 25.6 µM | CCC(Sc1nc(C)cc(=O)[nH]1)C(=O)Nc1sc2c(c1C#N)CCCC2 (stereo unspecified) [MLS000112919]
15 | 7.12 µM | Cn1c(C(=O)NCCCN2CCN(c3ccccc3F)CC2)cc2c(=O)n(C)c3ccccc3c21 [MLS000118127]
16 | 2.68 µM | Cn1c(C(=O)NCCN2CCN(c3ccccc3F)CC2)cc2c(=O)n(C)c3ccccc3c21 [MLS000118132]
17 | 1.51 µM | Cc1nn(C)c(C)c1C=C1SC(S)=NC1=O [MLS000324943]
18 | 19.4 µM | O=C(Cc1csc(-c2ccccc2)n1)NCc1ccc(F)cc1 [MLS000336311]
19 | 5.08 µM | CCN(CC)S(=O)(=O)c1ccc(NC(=O)CSc2ncnc3ccccc23)cc1 [MLS000393282]
20 | 7.48 µM | CNc1ccc(/C=C(\CCC(=O)O)c2nc3ccccc3s2)cc1[N+](=O)[O-] [MLS000394200]

Row | EC50 | SMILES
21 | 19.5 µM | CC1Cc2ccccc2N1C(=O)CN(C)S(=O)(=O)c1cccc2cccnc12 (stereo unspecified) [MLS000523063]
22 | 7.63 µM | CS(=O)(=O)N(CC(=O)N1CCN(c2ccc(F)cc2)CC1)c1ccc(F)c(Cl)c1 [MLS000531433]
23 | 3.93 µM | Cc1ccc(C(=O)Nc2nc(=O)n(C(=O)c3ccccc3Cl)s2)cc1 [MLS000540480]
24 | 0.0295 µM | O=C(NNc1nc(-c2ccccc2)cs1)c1ccccc1 [MLS000547345]
25 | 14.1 µM | O=[N+]([O-])c1ccccc1C=C[CH+][N-]n1c(-c2ccc(Cl)cc2)n[nH]c1=S [MLS000555506]
26 | 2.68 µM | O=C(CC(Cc1ccccc1)c1ccco1)NC1CCCCC1 (stereo unspecified) [MLS000556612]
27 | 2.67 µM | CC(=NNC(=O)c1ccc(Br)cc1)c1ccccc1 [MLS000558629]
28 | 40.9 µM | Cc1nn2c(nc(O)c3ccccc32)c1C=O [MLS000565386]
29 | 1.99 µM | Cc1nn(-c2ccc(F)cc2)c(C)c1NS(=O)(=O)c1ccc2ccccc2c1 [MLS000565745]
30 | 13700 µM | O=C(O)/C=C/c1cn(Cc2ccccc2)nc1-c1ccccc1 [MLS000567315]
31 | 3.2 µM | CNC(=O)/C(=C\C=C\c1ccccc1)NC(=O)c1ccc([N+](=O)[O-])cc1 [MLS000570424]
32 | 0.304 µM | CCc1ccc(OCCNC(=O)c2ccccc2SCc2ccc(F)cc2)cc1 [MLS000577152]
33 | 7.66 µM | CCCC1=NN2C(=N)/C(=C\c3cc(C)n(-c4cc(C)cc(C)c4)c3C)C(=O)N=C2S1 [MLS000588586]
34 | 2.19 µM | O=C(CSc1ccc(-c2cccs2)nn1)Nc1ccccc1F [MLS000621184]
35 | 34.2 µM | COc1cccc(CNC(=O)CSc2ccc(-c3cccs3)nn2)c1 [MLS000621194]
36 | 12.4 µM | O=C(C=Cc1ccccc1)CC(=O)c1ccccc1O [MLS000627068]
37 | 7.64 µM | O=C(NCc1nc(-c2ccccc2)cs1)c1ccccc1 [MLS000661971]
38 | 0.953 µM | CN(CC(=O)N1CCN(Cc2ccccc2)CC1)S(=O)(=O)c1cccc2nsnc12 [MLS000674627]
39 | 2.43 µM | O=C(CN(c1ccc2c(c1)OCCO2)S(=O)(=O)c1ccccc1)N1CCN(Cc2ccccc2)CC1 [MLS000693333]
40 | 9 µM | O=C(c1ccccc1SCc1ccc(F)cc1)N1CCOCC1 [MLS000712999]

Row | EC50 | SMILES
41 | 6.36 µM | O=C(NC1CCCC1)C(c1ccncc1)N(Cc1ccco1)C(=O)c1ccc(-c2ccccc2)[nH]1 (stereo unspecified) [MLS000718066]
42 | 31 µM | O=C(CSc1ccc(-c2ccccc2)nn1)Nc1ccc2c(c1)OCCO2 [MLS000724887]
43 | 1.69 µM | CC(=O)NCC1CCCN(c2nc3nonc3nc2N(C)Cc2ccccc2)C1 (stereo unspecified) [MLS000731683]
44 | 4.25 µM | CCc1cc(C(=O)N2CCCC(CNC(=O)c3ccc(-c4ccccc4)cc3)C2)no1 (stereo unspecified) [MLS000731765]
45 | 8.13 µM | CC(=O)NCCC(=O)N1CCCC(CNC(=O)c2ccc(-c3ccccc3)cc2)C1 (stereo unspecified) [MLS000733794]
46 | 5.16 µM | CSCCC(=O)N1CCCC(CNC(=O)c2ccc(-c3ccccc3)cc2)C1 (stereo unspecified) [MLS000733867]
47 | 408 µM | Cc1ccc(NC(=O)CCCSc2ccccc2)cc1S(=O)(=O)N1CCOCC1 [MLS000761060]
48 | 0.806 µM | O=C(NNc1nc(-c2ccc(F)cc2)cs1)c1ccccc1 [MLS000763429]
49 | 0.363 µM | COc1ccccc1NC(=S)NNC1=c2cc(Br)ccc2=NC1=O [MLS000778253]
50 | 0.252 µM | O=C(NNc1nc(-c2ccccc2)cs1)c1cccs1 [MLS000858987]
51 | 334 µM | CCC(CC)NC(=O)CSc1nnc(-c2c[nH]c3ccccc23)o1 [MLS001017505]
52 | 15.7 µM | COc1ccc(N(CC(=O)Nc2cccc(C)c2C)S(=O)(=O)c2c(C)n[nH]c2C)cc1 [N-(2,3-dimethylphenyl)-2-[(3,5-dimethyl-1H-pyrazol-4-yl)sulfonyl-(4-methoxyphenyl)amino]ethanamide]
53 | 0.493 µM | Cc1csc(NC(=O)CSc2ccc(-c3ccccc3)nn2)n1 [N-(4-methyl-1,3-thiazol-2-yl)-2-(6-phenylpyridazin-3-yl)sulfanyl-ethanamide]
54 | 0.48 µM | CC(=NNC(=O)c1ccc(Cl)c(Cl)c1)c1ccc(Br)s1 [N-[1-(5-bromo-2-thiophenyl)ethylideneamino]-3,4-dichlorobenzamide]
55 | 20.1 µM | O=C(NCCc1c[nH]c2ccccc12)c1cc(S(=O)(=O)N2CCCCC2)ccc1N1CCOCC1 [N-[2-(1H-indol-3-yl)ethyl]-2-morpholin-4-yl-5-piperidin-1-ylsulfonylbenzamide]
56 | 26.6 µM | CC(C)(C)NC(=O)C(c1ccncc1)N(Cc1ccco1)C(=O)c1ccc(-c2ccccc2)[nH]1 (stereo unspecified) [N-[2-(tert-butylamino)-2-oxo-1-pyridin-4-ylethyl]-N-(furan-2-ylmethyl)-5-phenyl-1H-pyrrole-2-carboxamide]
57 | 1.93 µM | CC(C)(C)NC(=O)C(c1cccs1)N(CC1CCCO1)C(=O)c1ccc(-c2ccccc2)[nH]1 (stereo unspecified) [N-[2-(tert-butylamino)-2-oxo-1-thiophen-2-ylethyl]-N-(2-oxolanylmethyl)-5-phenyl-1H-pyrrole-2-carboxamide]
58 | 0.153 µM | O=C(NN1C(=O)/C(=C/c2nc3ccccc3[nH]2)SC1=S)c1ccccc1Cl [N-{5-[1-(1H-Benzoimidazol-2-yl)-meth-(Z)-ylidene]-4-oxo-2-thioxo-thiazolidin-3-yl}-2-chloro-benzamide]
59 | 244 µM | Cc1ccc2[nH]c(=O)c(CN(CCc3ccccc3)Cc3nnnn3CC3CCCO3)cc2c1 (stereo unspecified) [SMR000003177]
60 | 3.79 µM | O=C(CSc1nnc(-c2c[nH]c3ccccc23)o1)N1CCCCC1 [SMR000003748]

Same assay, conditions: inactive by the depositor's call

Row | EC50 | SMILES
61 | 85.7 µM | Cc1nnc(NC(=O)c2ccc3ccccc3c2)o1 [MLS000056450]
62 | 24 µM | O=C(Cn1nnc(-c2ccccc2-n2cnnn2)n1)NCc1ccccc1 [MLS000073516]
63 | 2270 µM | CN(CC(=O)N1CC(=O)N(CCc2ccccc2)C(=O)C1)S(=O)(=O)c1cccc2nsnc12 [MLS000095099]
64 | 67 µM | CC(=O)Nc1ccc(S(=O)(=O)N2CCN(C(C)CCc3ccccc3)CC2)cc1 (stereo unspecified) [MLS000110551]
65 | 9.15 µM | N#C/C(=C\c1ccc(-c2cccc([N+](=O)[O-])c2)o1)C(=O)Nc1nc(-c2cccs2)cs1 [MLS000402444]
66 | 64 µM | CN1C(C(=O)NCc2ccccc2)CC2Cn3c(nc4cc(Cl)c(Cl)cc43)C21 (stereo unspecified) [MLS000877509]
